Reference: the supplement of paper PMC6045584
± gives the standard deviation of the averaged measurements.

Experiments:
PACLITAXEL [1] = compound: T1, CC(=O)O[C@H]1C(=O)[C@@]2(C)[C@H]([C@H](OC(=O)c3ccccc3)[C@]3(O)C[C@H](OC(=O)[C@H](O)[C@@H](NC(=O)c4ccccc4)c4ccccc4)C(C)=C1C3(C)C)[C@]1(OC(C)=O)CO[C@@H]1C[C@@H]2O [PACLITAXEL]; assay: surviving fraction relative to DMSO-only wells; higher = less growth inhibition; settings: exposure time: 5 days
In short: (§1)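 Log-phase tumour cells were seeded at 250–500 per well in 384-well plates and, from 24 hours after seeding, exposed continuously for five days to inhibitors at 0.5, 1, 5, 10, 50, 100, 500 and 1000 nM. Surviving fraction is CellTiter-Glo luminescence normalised to the median of DMSO-only wells. Luminescence was measured after 10 minutes at room temperature, and only lines screened three times with replicate Pearson r >0.7 and median Z' >0.3 were kept.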

CARBOPLATIN [2] = compound: T2, O=C(O)C1(C(=O)O)CCC1.[NH2-].[NH2-].[Pt+2] [CARBOPLATIN]; assay: as above; settings: exposure time: 5 days
In short: as §1

[3] = compound: CC(=O)c1c(C)c2cnc(Nc3ccc(N4CCNCC4)cn3)nc2n(C2CCCC2)c1=O; assay: as above; settings: exposure time: 5 days
In short: as §1

CELECOXIB [4] = compound: T3, Cc1ccc(-c2cc(C(F)(F)F)nn2-c2ccc(S(N)(=O)=O)cc2)cc1 [CELECOXIB]; assay: as above; settings: exposure time: 5 days
In short: as §1

OSI-906 [5] = compound: T4, C[C@]1(O)C[C@@H](c2nc(-c3ccc4ccc(-c5ccccc5)nc4c3)c3c(N)nccn32)C1 [OSI-906]; assay: as above; settings: exposure time: 5 days
In short: as §1

[6] = compound: CC(=O)NCC(=O)N1[C@@H]2CC[C@H]1c1ccc(Nc3ncc(C(F)(F)F)c(NC4CCC4)n3)cc12; assay: as above; settings: exposure time: 5 days
In short: as §1

YM155 [7] = compound: T5, COCC[n+]1c2c(n(Cc3cnccn3)c1C)C(=O)c1ccccc1C2=O [YM155]; assay: as above; settings: exposure time: 5 days
In short: as §1

GEFITINIB [8] = compound: T6, COc1cc2ncnc(Nc3ccc(F)c(Cl)c3)c2cc1OCCCN1CCOCC1 [GEFITINIB]; assay: as above; settings: exposure time: 5 days
In short: as §1

CAMPTOTHECIN [9] = compound: T7, CC[C@@]1(O)C(=O)OCc2c1cc1n(c2=O)Cc2cc3ccccc3nc2-1 [CAMPTOTHECIN]; assay: as above; settings: exposure time: 5 days
In short: as §1

PACLITAXEL [10] = compound: T1, PACLITAXEL; assay: area under dose-response curve of surviving fraction (unscaled, Aref=0) (surviving fraction x log10(nM)); higher = more resistant; settings: exposure time: 5 days; dose range 0.5-1000 nM
In short: (§2)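 Tumour cell lines in 384-well plates were exposed to eight inhibitor concentrations, from 0.5 to 1000 nM, for five days, and viability was read by CellTiter-Glo luminescence in three screens per line. Signals were normalised to DMSO-only wells, and 3-parameter logistic regression in the drc R package fitted dose-response survival curves to the surviving fractions. Area under the curve is given as the unscaled activity area. That area is taken over log10 dose with Aref = 0.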

CARBOPLATIN [11] = compound: T2, CARBOPLATIN; assay: as above; settings: exposure time: 5 days; dose range 0.5-1000 nM
In short: as §2

[12] = compound: CC(=O)c1c(C)c2cnc(Nc3ccc(N4CCNCC4)cn3)nc2n(C2CCCC2)c1=O; assay: as above; settings: exposure time: 5 days; dose range 0.5-1000 nM
In short: as §2

CELECOXIB [13] = compound: T3, CELECOXIB; assay: as above; settings: exposure time: 5 days; dose range 0.5-1000 nM
In short: as §2

OSI-906 [14] = compound: T4, OSI-906; assay: as above; settings: exposure time: 5 days; dose range 0.5-1000 nM
In short: as §2

[15] = compound: CC(=O)NCC(=O)N1[C@@H]2CC[C@H]1c1ccc(Nc3ncc(C(F)(F)F)c(NC4CCC4)n3)cc12; assay: as above; settings: exposure time: 5 days; dose range 0.5-1000 nM
In short: as §2

YM155 [16] = compound: T5, YM155; assay: as above; settings: exposure time: 5 days; dose range 0.5-1000 nM
In short: as §2

GEFITINIB [17] = compound: T6, GEFITINIB; assay: as above; settings: exposure time: 5 days; dose range 0.5-1000 nM
In short: as §2

CAMPTOTHECIN [18] = compound: T7, CAMPTOTHECIN; assay: as above; settings: exposure time: 5 days; dose range 0.5-1000 nM
In short: as §2

SCC90 HEADNECK showed a surviving fraction (PACLITAXEL [1]; 0.5 nM) of 0.919 ± 0.038, a surviving fraction (PACLITAXEL [1]; 1 nM) of 0.95 ± 0.12 and a surviving fraction (PACLITAXEL [1]; 5 nM) of 0.429 ± 0.057. The surviving fraction (PACLITAXEL [1]; 10 nM) was 0.294 ± 0.063, the surviving fraction (PACLITAXEL [1]; 50 nM) was 0.119 ± 0.024 and the surviving fraction (PACLITAXEL [1]; 100 nM) was 0.0713 ± 0.011. It also gave a surviving fraction (PACLITAXEL [1]; 500 nM) of 0.07 ± 0.012, a surviving fraction (PACLITAXEL [1]; 1000 nM) of 0.0663 ± 0.01 and a surviving fraction (CARBOPLATIN [2]; 0.5 nM) of 1.02 ± 0.023. The surviving fraction (CARBOPLATIN [2]; 1 nM) was 1.04 ± 0.034, the surviving fraction (CARBOPLATIN [2]; 5 nM) was 1.12 ± 0.18 and the surviving fraction (CARBOPLATIN [2]; 10 nM) was 1.11 ± 0.034. It also gave a surviving fraction (CARBOPLATIN [2]; 50 nM) of 1.2 ± 0.07, a surviving fraction (CARBOPLATIN [2]; 100 nM) of 1.15 ± 0.012 and a surviving fraction (CARBOPLATIN [2]; 500 nM) of 1.14 ± 0.098. The surviving fraction (CARBOPLATIN [2]; 1000 nM) was 1.16 ± 0.12, the surviving fraction ([3]; 0.5 nM) was 1.092 ± 0.0083 and the surviving fraction ([3]; 1 nM) was 1.1 ± 0.11. For the same test system, the surviving fraction ([3]; 5 nM) was 1.12 ± 0.1, the surviving fraction ([3]; 10 nM) was 1.15 ± 0.025 and the surviving fraction ([3]; 50 nM) was 1.06 ± 0.042. It also gave a surviving fraction ([3]; 100 nM) of 1.19 ± 0.14, a surviving fraction ([3]; 500 nM) of 1.12 ± 0.056 and a surviving fraction ([3]; 1000 nM) of 1.13 ± 0.13. It also gave a surviving fraction (CELECOXIB [4]; 0.5 nM) of 0.978 ± 0.063, a surviving fraction (CELECOXIB [4]; 1 nM) of 1.09 ± 0.13 and a surviving fraction (CELECOXIB [4]; 5 nM) of 1.09 ± 0.11. The surviving fraction (CELECOXIB [4]; 10 nM) was 1.01 ± 0.077, the surviving fraction (CELECOXIB [4]; 50 nM) was 1.13 ± 0.11 and the surviving fraction (CELECOXIB [4]; 100 nM) was 1.01 ± 0.077. For the same test system, the surviving fraction (CELECOXIB [4]; 500 nM) was 0.93 ± 0.048, the surviving fraction (CELECOXIB [4]; 1000 nM) was 1.01 ± 0.15 and the surviving fraction (OSI-906 [5]; 0.5 nM) was 0.88 ± 0.033. The surviving fraction (OSI-906 [5]; 1 nM) was 0.822 ± 0.075, the surviving fraction (OSI-906 [5]; 5 nM) was 0.89 ± 0.096 and the surviving fraction (OSI-906 [5]; 10 nM) was 0.883 ± 0.026. For the same test system, the surviving fraction (OSI-906 [5]; 50 nM) was 1.03 ± 0.098, the surviving fraction (OSI-906 [5]; 100 nM) was 1.02 ± 0.027 and the surviving fraction (OSI-906 [5]; 500 nM) was 0.971 ± 0.019. It also gave a surviving fraction (OSI-906 [5]; 1000 nM) of 0.981 ± 0.078, a surviving fraction ([6]; 0.5 nM) of 0.769 ± 0.12 and a surviving fraction ([6]; 1 nM) of 0.816 ± 0.048. It also gave a surviving fraction ([6]; 5 nM) of 0.936 ± 0.035, a surviving fraction ([6]; 10 nM) of 0.991 ± 0.089 and a surviving fraction ([6]; 50 nM) of 0.66 ± 0.13. For the same test system, the surviving fraction ([6]; 100 nM) was 0.62 ± 0.084, the surviving fraction ([6]; 500 nM) was 0.665 ± 0.048 and the surviving fraction ([6]; 1000 nM) was 0.613 ± 0.017. It also gave a surviving fraction (YM155 [7]; 0.5 nM) of 0.914 ± 0.097, a surviving fraction (YM155 [7]; 1 nM) of 0.937 ± 0.021 and a surviving fraction (YM155 [7]; 5 nM) of 1.08 ± 0.1. It also gave a surviving fraction (YM155 [7]; 10 nM) of 1.1 ± 0.037, a surviving fraction (YM155 [7]; 50 nM) of 0.676 ± 0.085 and a surviving fraction (YM155 [7]; 100 nM) of 0.276 ± 0.039. For the same test system, the surviving fraction (YM155 [7]; 500 nM) was 0.0483 ± 0.0067, the surviving fraction (YM155 [7]; 1000 nM) was 0.0363 ± 0.0031 and the surviving fraction (GEFITINIB [8]; 0.5 nM) was 1.15 ± 0.1. The surviving fraction (GEFITINIB [8]; 1 nM) was 1.06 ± 0.15, the surviving fraction (GEFITINIB [8]; 5 nM) was 1.03 ± 0.023 and the surviving fraction (GEFITINIB [8]; 10 nM) was 0.85 ± 0.051. For the same test system, the surviving fraction (GEFITINIB [8]; 50 nM) was 0.804 ± 0.019, the surviving fraction (GEFITINIB [8]; 100 nM) was 0.651 ± 0.057 and the surviving fraction (GEFITINIB [8]; 500 nM) was 0.474 ± 0.044. The surviving fraction (GEFITINIB [8]; 1000 nM) was 0.465 ± 0.054, the surviving fraction (CAMPTOTHECIN [9]; 0.5 nM) was 0.823 ± 0.035 and the surviving fraction (CAMPTOTHECIN [9]; 1 nM) was 0.879 ± 0.043. It also gave a surviving fraction (CAMPTOTHECIN [9]; 5 nM) of 0.904 ± 0.058, a surviving fraction (CAMPTOTHECIN [9]; 10 nM) of 0.75 ± 0.046 and a surviving fraction (CAMPTOTHECIN [9]; 50 nM) of 0.343 ± 0.056. The surviving fraction (CAMPTOTHECIN [9]; 100 nM) was 0.253 ± 0.032, the surviving fraction (CAMPTOTHECIN [9]; 500 nM) was 0.04 ± 0.0076 and the surviving fraction (CAMPTOTHECIN [9]; 1000 nM) was 0.0327 ± 0.0051. For the same test system, the “area under dose-response curve” value (PACLITAXEL [10]) was 1.1, the “area under dose-response curve” value (CARBOPLATIN [11]) was 3.68 and the “area under dose-response curve” value [12] was 3.7. The “area under dose-response curve” value (CELECOXIB [13]) was 3.43, the “area under dose-response curve” value (OSI-906 [14]) was 3.1 and the “area under dose-response curve” value [15] was 2.52. The “area under dose-response curve” value (YM155 [16]) was 2.17, the “area under dose-response curve” value (GEFITINIB [17]) was 2.63 and the “area under dose-response curve” value (CAMPTOTHECIN [18]) was 1.77.
